These results are taken from US20130197077A1, “Bicyclic Furanones with Low Toxicity for Microbial Control” (priority 2012, published 2013).

Molecules are shown by their SMILES.

The subject of one data set is E. coli RP437. An excerpt: FIG. 10 is a graph comparing the cytotoxicity of the exemplary bicyclic brominated furanones according to the present invention verses an exemplary conventional brominated furanone relative to E. Coli RP437;
Data set [1] deals with SK-N-SH human neuroblastoma. In words: Cytotoxicity to mammalian cells, survival (%) by OD450. It is filed as cell-based. As to conditions: 100 μM; 0 h, 24 h and 48 h recovery after removal of drugs. The procedure: (§1) In this test, the mammalian cells used were 3T3 mouse fibroblasts and SK-N-SH human neuroblastomas, and 0 h, 24 h, and 48 h, refer to recovery time of cells after removal of drugs. At the beginning of the experiment, the survival of the cells is assumed to be 100 percent. The survival percentage is calculated using the following formula: […]
(§2) The sample OD was obtained from the wells containing cells and drugs, and the control OD was obtained from wells containing cells+1% DMSO.

A further data set deals with 3T3 mouse fibroblasts. The description is as above. The format is cell-based. As to conditions: 100 μM; 0 h, 24 h and 48 h recovery after removal of drugs. How it is done:
as §1, §2

As to `CC1=C(Br)/C(=C/Br)OC1=O` [BF8], the “toxicity to the growth of E. coli RP437” value with E. coli RP437 was “more toxic”. Also, the “cytotoxicity to SK-N-SH human neuroblastomas” value in data set [1] is “cytotoxic”. For the same compound, the “cytotoxicity to 3T3 mouse fibroblasts” value with 3T3 mouse fibroblasts is recorded as “cytotoxic”.
